Results on 18 compounds are retold here after article PMC7587356, “High-Throughput Screening for Inhibitors of the SARS-CoV-2 Protease Using a FRET-Biosensor” (Molecules, 2020).

The target in the assay is SARS-CoV-2 3CLpro (Severe acute respiratory syndrome coronavirus 2, UniProt P0DTD1). The experiment in a line: biochemical. The assay is classed as biochemical. Also on record: Replicate_1 / Replicate_2 / mean / mean (LOPAC_screen_w_protease): unit not given here. The settings on record: for inhibition at 5 µM: 4 h.
Setting [1] is: sheet LOPAC_screen_w_protease, primary screen of LOPAC1280 at 5 µM with protease, mean of the two replicates, read-out: mean.
The mark [2] stands for this setting: sheet LOPAC_screen_w_protease, primary screen of LOPAC1280 at 5 µM with protease, replicate 1, read-out: Replicate_1.
[3] abbreviates: sheet LOPAC_screen_w_protease, primary screen of LOPAC1280 at 5 µM with protease, replicate 2, read-out: Replicate_2.
[4] abbreviates: sheet LOPAC_screen_w_protease, LOPAC1280 primary screen with protease, 5 µM compound, mean of the two replicates.
The mark [5] stands for this setting: sheet LOPAC_screen_w_protease, LOPAC1280 primary screen with protease, 5 µM compound, replicate 1.
The mark [6] stands for this setting: sheet LOPAC_screen_w_protease, LOPAC1280 primary screen with protease, 5 µM compound, replicate 2.
Setting [7] is: LOPAC1280 primary screen with protease, 5 µM compound, mean of the two replicates.
Where [8] appears, read: LOPAC1280 primary screen with protease, 5 µM compound, replicate 1.
Where [9] appears, read: sheet LOPAC_screen_w_protease, LOPAC1280 at 5 µM, mean of two replicates.
Setting [10] is: sheet LOPAC_screen_w_protease, LOPAC1280 at 5 µM, replicate 1.
The mark [11] stands for this setting: sheet LOPAC_screen_w_protease, LOPAC1280 at 5 µM, replicate 2.

Structures can show the parent of a compound that is named as a salt. Where two headings read alike, the source gives them in different places.

`Cc1cc(N)c2ccccc2[n+]1CCCCCCCCCCCCCC[n+]1c(C)cc(N)c2ccccc21.[I-].[I-]` [Dequalinium analog, C-14 linker]: the “mean (LOPAC screen with protease)” value (sheet LOPAC_screen_w_protease, primary screen at 5 µM, mean of two replicates) is on record as 11.1281. Further, for the setting “sheet LOPAC_screen_w_protease, primary screen at 5 µM, replicate 1”, the “Replicate_1 (LOPAC screen with protease)” value was 10.1675. Under “sheet LOPAC_screen_w_protease, primary screen at 5 µM, replicate 2”, the “Replicate_2 (LOPAC screen with protease)” value worked out at 12.0887.

As to `CC(=O)OCC1=C(C(=O)O)N2C(=O)[C@@H](NC(=O)CSc3ccncc3)[C@H]2SC1` [Cephapirin sodium], the inhibition at 5 µM under setting [1] came out at 4.07%, the inhibition at 5 µM under setting [2] is 3.36% and the inhibition at 5 µM under setting [3] was found to be 4.79%.

Turning to `CCOC(=O)c1cnc2c(cnn2CC)c1NN=C(C)C` [Etazolate hydrochloride], the inhibition at 5 µM was found to be 6.78% (sheet LOPAC_screen_w_protease, primary screen at 5 µM, mean of two replicates, read-out: mean (LOPAC screen with protease)); 5.91% (sheet LOPAC_screen_w_protease, primary screen at 5 µM, replicate 1, read-out: Replicate_1 (LOPAC screen with protease)); 7.65% (sheet LOPAC_screen_w_protease, primary screen at 5 µM, replicate 2, read-out: Replicate_2 (LOPAC screen with protease)).

As to `CCCCCCN(CCCCCC)C(=O)Cc1c(-c2ccc(F)cc2)[nH]c2ccccc12`, under setting [4], the mean is given as 4.628. Besides, under setting [5], the Replicate_1 stood at 5.9351. Under setting [6], the Replicate_2 is recorded as 3.32.

`Cn1c(=O)[nH]c2ncn(C)c2c1=O` [1,7-Dimethylxanthine]: the inhibition at 5 µM is, setting by setting: (LOPAC1280 primary screen with protease, 5 µM compound, replicate 1, read-out: Replicate_1 (LOPAC_screen_w_protease)) 1.95%; (LOPAC1280 primary screen with protease, 5 µM compound, replicate 2, read-out: Replicate_2 (LOPAC_screen_w_protease)) 1.66%. Moreover, the “mean (LOPAC_screen_w_protease)” value under setting [7] amounted to 1.802.

On to `NC(=O)CN1CC(O)CC1=O` (centres unmarked) [Oxiracetam], for which the inhibition at 5 µM reads like this: under setting [1], 3.68%; under setting [2], 3.64%; under setting [3], 3.71%.

`C[C@@H]1O[C@H](C[N+](C)(C)C)C[C@H]1O.[Cl-]` (racemic) [(±)-Muscarine chloride] displayed a mean under setting [4] of 5.0033. The compound further registered a Replicate_1 under setting [5] of 6.646. The compound also returned a Replicate_2 under setting [6] of 3.361.

`O=C(c1ccc2c(c1)OCCO2)N1CCCCC1` [CX 546] had a Replicate_1 of 1.108, a Replicate_2 of -1.5724 and a mean of -0.2323.

Turning to `Br.COc1ccc2c(c1)[C@]13CCCC[C@@H]1[C@H](C2)N(C)CC3.O`, under setting [7], the “mean (LOPAC_screen_w_protease)” value came out at 1.973. Also, the “Replicate_1 (LOPAC_screen_w_protease)” value under setting [8] amounted to 1.427.

Consider `Cl.NC1CCN(c2cccc(Cl)n2)CC1` [SR 57227A], for which the mean under setting [9] was found to be 1.074. This compound also had a Replicate_1 under setting [10] of 1.181. The Replicate_2 under setting [11] amounted to 0.9673.

As for `Nc1ncnc2c1ncn2[C@@H]1O[C@H](C(=O)NC2CC2)[C@@H](O)[C@H]1O` [5'-(N-Cyclopropyl)carboxamidoadenosine], the “mean (LOPAC_screen_w_protease)” value (LOPAC1280 primary screen with protease, 5 µM compound, mean of two replicates) was determined as 1.624. Moreover, the “Replicate_1 (LOPAC_screen_w_protease)” value under setting [8] was 1.713. Moreover, for the setting “LOPAC1280 primary screen with protease, 5 µM compound, replicate 2”, the “Replicate_2 (LOPAC_screen_w_protease)” value came out at 1.536.

`O=[N+]([O-])c1cc(O)c(O)c([N+](=O)[O-])c1` [3,5-Dinitrocatechol] returned a mean (sheet LOPAC_screen_w_protease, primary screen with protease, mean of two replicates) of 2.373. In addition, the Replicate_1 (sheet LOPAC_screen_w_protease, primary screen with protease, replicate 1) was 3.489. The compound further displayed a Replicate_2 (sheet LOPAC_screen_w_protease, primary screen with protease, replicate 2) of 1.257.

As to `Br.CCCN1CC[C@@H]2c3cc(O)ccc3CC[C@@H]21` (racemic) [cis-(±)-8-OH-PBZI hydrobromide], the mean (sheet LOPAC_screen_w_protease, primary screen of LOPAC1280 at 5 µM with protease, mean of the two replicates) stood at 4.0009. The same compound had a Replicate_1 (sheet LOPAC_screen_w_protease, primary screen of LOPAC1280 at 5 µM with protease, replicate 1) of 4.218. Further, the Replicate_2 (sheet LOPAC_screen_w_protease, primary screen of LOPAC1280 at 5 µM with protease, replicate 2) came out at 3.784.

For `Cn1ccnc1` [1-Methylimidazole], the inhibition at 5 µM came out at 4.84% (sheet LOPAC_screen_w_protease, LOPAC1280 primary screen with protease, 5 µM compound, mean of the two replicates, read-out: mean); 4.68% (sheet LOPAC_screen_w_protease, LOPAC1280 primary screen with protease, 5 µM compound, replicate 1, read-out: Replicate_1); 4.99% (sheet LOPAC_screen_w_protease, LOPAC1280 primary screen with protease, 5 µM compound, replicate 2, read-out: Replicate_2).

`N[C@@H]1C[C@H]1c1ccccc1` [Tranylcypromine hydrochloride] returned a Replicate_1 of 0.4955, a Replicate_2 of 0.8775 and a mean of 0.6865.

Take `CC(C)CC(NC(=O)C1OC1C(=O)O)C(=O)NCCCCNC(=N)N` (centres unmarked) [E-64]: the mean (sheet LOPAC_screen_w_protease, primary screen with protease, 5 µM, mean of two replicates) is 0.2813. The Replicate_1 (sheet LOPAC_screen_w_protease, primary screen with protease, 5 µM, replicate 1) is recorded as 1.4489. This compound registered a Replicate_2 (sheet LOPAC_screen_w_protease, primary screen with protease, 5 µM, replicate 2) of -0.8864.

Turning to `O=C(O)Cc1ccccc1Nc1c(Cl)cccc1Cl` [Diclofenac sodium], the “mean (LOPAC_screen_w_protease)” value is reported as 1.426. Further, the inhibition at 5 µM (read-out: Replicate_1 (LOPAC_screen_w_protease)) was determined as 3.59%. Besides, the inhibition at 5 µM (read-out: Replicate_2 (LOPAC_screen_w_protease)) was -0.743%.

Take `Cl.NC1(C(=O)O)CC1`: under setting [9], the mean was 1.084. In addition, under setting [10], the Replicate_1 was 2.432. In addition, the Replicate_2 under setting [11] is reported as -0.2629.
